Values quoted from earlier work, collected in patent US7498301B2, “Composition containing dipeptide of histidine and alanine for reducing uric acid and method for reducing uric acid using the dipeptide” (Lytone Enterprise, Inc., priority 2003, dated 2009).

Columns and labels:
[1] = low pH (<3.0)
[2] = tested on: peptidase and proteases excreted from pancreas or other digestive organs

Stability under low pH [1]: remain intact
Digestion by peptidase and proteases [2]: resist against digestion
SMILES: NCCC(=O)N[C@@H](Cc1cnc[nH]1)C(=O)O [carnosine, β-alanyl-L-histidine]
